Source: the supplement of paper PMC10307832

Assays:
Test in all cases: relative viability (nuclei count vs DMSO), 5 days (fraction); higher = more cells survive
[1] = compound: C1=CC2=NC=CN=C2C=C1/C=C/3\C(=O)NC(=O)S3 + Cc1cc(Nc2cc(N3CCN(C)CC3)nc(Sc3ccc(NC(=O)C4CC4)cc3)n2)n[nH]1 [Tozasertib] (partner 0.1 µM)
Procedure, shortened: (§1)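 A single step with final 0.05% Triton X-100, 1% formaldehyde and 1 ug/ml Hoechst fixed the cells and stained nuclei 5 days after treatment. Lung cancer cell lines in 1536-well plates had been treated by pin tool the day after seeding with one drug alone or a fixed anchor-drug dose plus five library-drug doses (not always all listed) in √10 steps, and nuclei were counted on 4× images. Relative viability is the ratio of nuclei in treated wells to nuclei in vehicle wells, taken as the median of duplicate plates.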

[2] = compound: CCN1CCN(c2ccc(Nc3cc(N(C)C(=O)Nc4c(Cl)c(OC)cc(OC)c4Cl)ncn3)cc2)CC1 [BGJ398] + CS(=O)(=O)CCNCc1ccc(-c2ccc3ncnc(Nc4ccc(OCc5cccc(F)c5)c(Cl)c4)c3c2)o1 [Lapatinib] (partner 2 µM)
Procedure, shortened: as §1

[3] = compound: CCN1CCN(c2ccc(Nc3cc(N(C)C(=O)Nc4c(Cl)c(OC)cc(OC)c4Cl)ncn3)cc2)CC1 [BGJ398] + O=C(c1cc(Cc2n[nH]c(=O)c3ccccc23)ccc1F)N1CCN(C(=O)C2CC2)CC1 [Olaparib] (partner 8 µM)
Procedure, shortened: as §1

[4] = compound: CCN1CCN(c2ccc(Nc3cc(N(C)C(=O)Nc4c(Cl)c(OC)cc(OC)c4Cl)ncn3)cc2)CC1 [BGJ398] + CC(=O)c1c(C)c2cnc(Nc3ccc(N4CCNCC4)cn3)nc2n(C2CCCC2)c1=O [Palbociclib] (partner 0.5 µM)
Procedure, shortened: as §1

UMC-11
relative viability ([1]; first compound 0.02 µM): 0.205 | relative viability ([1]; first compound 0.06325 µM): 0.193 | relative viability ([1]; first compound 0.2 µM): 0.202 | relative viability ([1]; first compound 0.6325 µM): 0.203 | relative viability ([1]; first compound 2 µM): 0.192 | relative viability ([2]; first compound 0.01 µM): 1.14 | relative viability ([2]; first compound 0.03162 µM): 0.987 | relative viability ([2]; first compound 0.1 µM): 0.991 | relative viability ([2]; first compound 0.3162 µM): 0.924 | relative viability ([2]; first compound 1 µM): 0.736 | relative viability ([3]; first compound 0.01 µM): 0.316 | relative viability ([3]; first compound 0.03162 µM): 0.447 | relative viability ([3]; first compound 0.1 µM): 0.376 | relative viability ([3]; first compound 0.3162 µM): 0.367 | relative viability ([3]; first compound 1 µM): 0.342 | relative viability ([4]; first compound 0.01 µM): 0.327 | relative viability ([4]; first compound 0.03162 µM): 0.276 | relative viability ([4]; first compound 0.1 µM): 0.36 | relative viability ([4]; first compound 0.3162 µM): 0.374 | relative viability ([4]; first compound 1 µM): 0.351
